From US7705118B2, “Methods for preparing internally constrained peptides and peptidomimetics” (New York University, priority 2004, dated 2010)

Key:
[1] = Circular dichroism of Bak BH3 peptides in 20% TFE/PBS; type: physicochemical; details: 20% TFE in PBS, 50 μM, 25° C., Yang's method
Procedure: The α-helical conformation of constrained peptide 10a was determined by circular dichroism spectroscopy. […] The HBS α-helix 10a is roughly 46% helical as measured by Yang's method (Chen et al., Biochemistry, 11:4120-4131 (1972), which is hereby incorporated by reference in its entirety). […]
CD spectra were recorded on AVIV 202SF CD spectrometer equipped with a temperature controller using 1 mm length cells and a scan speed of 5 nm/min at 25° C. […] The helix content of each peptide was determined from the mean residue CD at 222 nm, [θ]222 (deg cm^2 dmol^−1) corrected for the number of amide bonds (Chen et al., Biochemistry 11:4120-4131 (1972), which is hereby incorporated by reference in its entirety). Percent helicity was calculated from ratio [θ]222/[θ]max, where [θ]max=−39500×[1−(2.57/n)]. The [θ]max for HBS α-helices is calculated to be −33155 for n=16 (number of amide bonds in the peptide).

[2] = tested on: trypsin
Procedure: At different time intervals, 100 μL of the above solution was taken out, quenched with 100 μL of 2% TFA aqueous solution, and then injected into reversed-phase HPLC to analyze the change in the area of the peptide peak compared to the area of internal control (tryptophan).

[3] = Circular dichroism of constrained peptide 3 and control peptide 1; type: physicochemical; details: aqueous buffer and TFE solutions
Procedure: The structure of constrained peptide 3 was studied with circular dichroism (“CD”). CD studies on the constrained peptide 3 and the control peptide 1 in 30 mM phosphate buffer pH 7.0 were performed to obtain a quantitative measure of the helical content. […] The relative percent helicity of peptides can theoretically be measured by the mean residue ellipticity at 222 nm (Lyu et al., “Alpha-helix Stabilization by Natural and Unnatural Amino Acids with Alkyl Side Chains,” Proc. Nat'l Acad. Sci. 88:5317-5320 (1991), which is hereby incorporated by reference in its entirety), although these estimates are not typically accurate for short helices.
CD spectra were recorded on an AVIV 202SF CD spectrometer equipped with a temperature controller using 1 mm path length cells. The scan speed was set to 5 nm/min and spectra were averaged over 5 scans. Spectral baselines were obtained under analogous conditions as that for the samples. All spectra are baseline subtracted, converted to a uniform scale of molar ellipticity, and replotted. The helix content of each peptide was determined from the mean residue CD at 222 nm, [θ]222 (deg cm^2 dmol^−1) corrected for the number of amide bonds (Chin et al., Proc. Nat'l Acad. Sci. U.S.A., 99:15416-15421 (2002); Chen et al., Biochemistry, 11:4120-4131 (1972), which are hereby incorporated by reference in their entirety). […]

Row | percent helicity [1] [%] | proteolysis in the presence of trypsin [2] | CD spectrum [3] | SMILES
1 | ~26 | rapid proteolysis | – | CC[C@H](C)[C@H](NC(=O)[C@H](C)NC(=O)[C@H](CC(C)C)NC(=O)[C@H](CCC(N)=O)NC(=O)[C@H](CCCNC(=N)N)NC(=O)CNC(=O)[C@@H](NC(=O)[C@H](CCC(N)=O)NC(=O)CNC(C)=O)C(C)C)C(=O)N[C@H](C(=O)NCC(=O)N[C@@H](CC(=O)O)C(=O)N[C@@H](CC(=O)O)C(=O)N[C@H](C(=O)N[C@@H](CC(N)=O)C(=O)N[C@@H](CCCNC(=N)N)C(N)=O)[C@@H](C)CC)[C@@H](C)CC [peptide 9a]
2 | – | – | featureless spectrum | COC(=O)[C@@H](NC(=O)[C@@H](NC(=O)[C@@H](NC(=O)[C@@H](NC(=O)[C@@H](NC(=O)[C@@H](NC(=O)[C@@H](NC(=O)[C@H](NCC=O)NC(C)=O)N[C@@H](C=O)CCC(=O)O)N[C@@H](C)C=O)N[C@@H](C)C=O)N[C@@H](C)C=O)N[C@@H](C)C=O)N[C@@H](C=O)CCC(=O)O)N[C@@H](C)C=O [peptide 1]
